Measurements from patent US12435062B2, “Amide compounds and uses thereof” (HUTCHISON MEDIPHARMA LIMITED, priority 2020, dated 2025).

What was measured:
[1] = biological target: Recombinant human CSF1R kinase (Homo sapiens (Human), UniProt P07333); format: biochemical; details: Z-LYTE Tyr 1 peptide substrate
Ba/F3^BCR-FMS-11 cells = test: Cell proliferation experiment (Ba/F3^BCR-FMS-11, cckit-8); format: cell-based, mouse; details: Mus musculus, Ba/F3^BCR-FMS-11 cell proliferation
Protocol: Cell Proliferation Experiment
Ba/F3^BCR-FMS-11, mouse primary B lymphocytes stably expressing the BCR-FMS fusion gene. The cells were cultured in an RPMI 1640 medium containing 10% FBS.
2. Reagents and instruments
• cckit-8 kit: Dojindo, 9 CK04; • Envision: Perkin Elmer; • Cell culture plate: Facol, 9353027. 3. Experimental steps
The BCR-FMS fusion gene was transfected into Ba/F3 cells, and the cell line Ba/F3^BCR-FMS-11 that stably expresses BCR-FMS and grows depending on CSF-1R was screened. Ba/F3^BCR-FMS-11 cell proliferation experiments is completed by using the Cell Counting kit cckit-8 in a 96-well plate. In a 96-well plate, 5000/well of Ba/F3^BCR-FMS-11 cells were inoculated at 100 μL/well. […] 10 μL of the compound dilutions with the above 8 concentrations were added to the culture cell wells. The culture was incubated in a 37° C. and 5% CO2 cell incubator for 72 hours. 10 μL of Cell Counting kit cckit-8 detection reagent was added to each well, and incubated at 37° C. and 5% CO2 in a cell incubator for another 1 h. The optical density absorption value at 450 nm of each well was detected by using Perkin Elmer Envision instrument.
wherein • Drug-treated well read-out: indicating the optical density signal of a cell well with the test compound treatment. • Cell well read-out: indicating the optical density signal of a cell well not treated with the test compound (only 0.5% DMSO). • Background read-out: indicating the optical density signal of a well with the cell medium. 5. Calculation of IC50: obtained by using XL-Fit 5.3 software. 6. Test results

Sequence of Recombinant human CSF1R kinase (P07333 20-972): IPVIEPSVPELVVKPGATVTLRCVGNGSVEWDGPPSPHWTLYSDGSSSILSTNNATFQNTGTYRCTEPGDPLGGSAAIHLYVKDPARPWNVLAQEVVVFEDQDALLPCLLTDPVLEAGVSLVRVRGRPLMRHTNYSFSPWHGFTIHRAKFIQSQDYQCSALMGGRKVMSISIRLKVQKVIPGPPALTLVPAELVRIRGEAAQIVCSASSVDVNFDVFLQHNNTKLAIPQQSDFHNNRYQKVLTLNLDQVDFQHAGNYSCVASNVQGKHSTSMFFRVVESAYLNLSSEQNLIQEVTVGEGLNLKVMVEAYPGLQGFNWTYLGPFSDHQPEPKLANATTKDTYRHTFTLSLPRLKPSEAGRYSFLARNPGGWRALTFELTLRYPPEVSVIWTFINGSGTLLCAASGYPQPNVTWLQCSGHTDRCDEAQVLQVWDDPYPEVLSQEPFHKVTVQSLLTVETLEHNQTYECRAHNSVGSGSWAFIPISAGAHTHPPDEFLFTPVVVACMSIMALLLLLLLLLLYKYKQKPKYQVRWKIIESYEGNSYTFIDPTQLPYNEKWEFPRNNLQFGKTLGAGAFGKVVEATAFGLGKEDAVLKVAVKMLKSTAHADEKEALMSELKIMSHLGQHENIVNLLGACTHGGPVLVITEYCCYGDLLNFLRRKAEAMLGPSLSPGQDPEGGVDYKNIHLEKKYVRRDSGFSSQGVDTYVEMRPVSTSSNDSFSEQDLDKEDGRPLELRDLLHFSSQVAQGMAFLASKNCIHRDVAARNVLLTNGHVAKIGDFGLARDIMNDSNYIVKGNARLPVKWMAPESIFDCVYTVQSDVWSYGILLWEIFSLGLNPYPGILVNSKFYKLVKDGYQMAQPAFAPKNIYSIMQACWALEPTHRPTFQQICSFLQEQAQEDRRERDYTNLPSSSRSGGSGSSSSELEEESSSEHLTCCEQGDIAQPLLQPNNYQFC

CC(C)n1c(N(C)C)ccc(C(=O)Nc2ccc(Oc3ccnc(-c4cnn(C)c4)c3)cn2)c1=O [Compound 1, 6-(dimethylamino)-1-isopropyl-N-(5-((2-(1-methyl-1H-pyrazol-4-yl)pyridin-4-yl)oxy)pyridin-2-yl)-2-oxo-1,2-dihydropyridine-3-carboxamide]
IC50 [1]: 217 nM

CN(C)c1ccc(C(=O)Nc2ccc(Oc3ccnc(-c4cnn(C)c4)c3)cn2)c(=O)n1C [Compound 2, 6-(dimethylamino)-1-methyl-N-(5-((2-(1-methyl-1H-pyrazol-4-yl)pyridin-4-yl)oxy)pyridin-2-yl)-2-oxo-1,2-dihydropyridine-3-carboxamide]
IC50 (Ba/F3^BCR-FMS-11 cells; 72 hours): 11 nM

Cc1ncc(C(=O)Nc2ccc(Oc3ccnc(-c4cnn(CCN(C)C)c4)c3)cn2)c(=O)n1C [Compound 14]
IC50 (Ba/F3^BCR-FMS-11 cells; 72 h): 44 nM

Cc1cc(Oc2ccnc(-c3cnn(C)c3)c2)ccc1NC(=O)c1cccn(C(C)C)c1=O [Compound 19]
IC50 [1]: 274 nM

Cn1cc(-c2cc(Oc3ccc(NC(=O)c4cnc5ccccn5c4=O)nc3)ccn2)cn1 [Compound 26]
IC50 (Ba/F3^BCR-FMS-11 cells; 72 h): 10 nM

Cn1cccc(C(=O)Nc2ccc(Oc3ccnc(-n4cncn4)c3)cn2)c1=O [Compound 29]
IC50 [1]: 173 nM

Cc1ncc(C(=O)Nc2ccc(Oc3ccnc(-c4cncn4C)c3)cn2)c(=O)n1C [Compound 31]
IC50 [1]: 689 nM

Cc1cc(Nc2cc(Oc3ccc(NC(=O)c4cnc(C)n(C)c4=O)nc3)ccn2)ccn1 [Compound 35]
IC50 [1]: 113 nM

Cn1cccc(C(=O)Nc2ccc(Oc3ccnc(-n4cccn4)c3)cn2)c1=O [Compound 37]
IC50 [1]: 169 nM

Cn1cc(-c2cc(Oc3ccc(NC(=O)c4cn(C)c(=O)n(C)c4=O)nc3)ccn2)cn1 [Compound 40]
IC50 (Ba/F3^BCR-FMS-11 cells; 72 h): 46 nM

COc1cc(Oc2ccnc(-c3cnn(C)c3)c2)ccc1NC(=O)c1cnc(C)n(C)c1=O [Compound 53]
IC50 [1]: 135 nM

CC(C)n1ccnc(C(=O)Nc2ccc(Oc3ccnc(-c4cnn(C)c4)c3)cn2)c1=O [Compound 59]
IC50 [1]: 121 nM

Cn1cc(-c2cc(Oc3ccc(NC(=O)c4cnc(C5CC5)n(C)c4=O)nc3)ccn2)cn1 [Compound 74]
IC50 (Ba/F3^BCR-FMS-11 cells; 72 h): 12 nM

Cn1cc(-c2cc(Oc3ccc(NC(=O)c4cccn(CC(F)(F)F)c4=O)nc3)ccn2)cn1 [Compound 87]
IC50 (Ba/F3^BCR-FMS-11 cells; 72 h): 6 nM

COc1cc(Oc2ccnc(-c3cnn(C)c3)c2)cnc1NC(=O)c1cccn(C(C)C)c1=O [Compound 92, 1-isopropyl-N-(3-methoxy-5-((2-(1-methyl-1H-pyrazol-4-yl)pyridin-4-yl)oxy)pyridin-2-yl)-2-oxo-1,2-dihydropyridine-3-carboxamide]
IC50 (Ba/F3^BCR-FMS-11 cells; 72 h): 567 nM

Cn1cccc(C(=O)Nc2ccc(Oc3ccnc(-c4cnn(CCO)c4)c3)cn2)c1=O [Compound 94, N-(5-((2-(1-(2-hydroxyethyl)-1H-pyrazol-4-yl)pyridin-4-yl)oxy)pyridin-2-yl)-1-methyl-2-oxo-1,2-dihydropyridine-3-carboxamide]
IC50 (Ba/F3^BCR-FMS-11 cells; 72 h): 142 nM

CCN1CCN(c2cc(Oc3ccc(NC(=O)c4cccn(C(C)C)c4=O)nc3)ccn2)CC1 [Compound 98, N-(5-((2-(4-ethylpiperazin-1-yl)pyridin-4-yl)oxy)pyridin-2-yl)-1-isopropyl-2-oxo-1,2-dihydropyridine-3-carboxamide]
IC50 [1]: 484 nM

Cc1ncc(C(=O)Nc2ccc(Oc3ccnc(-c4cnn(CCN)c4)c3)cn2)c(=O)n1C [Compound 109, N-(5-((2-(1-(2-aminoethyl)-1H-pyrazol-4-yl)pyridin-4-yl)oxy)pyridin-2-yl)-1,2-dimethyl-6-oxo-1,6-dihydropyrimidine-5-carboxamide]
IC50 [1]: 177 nM

CNCCn1cc(-c2cc(Oc3ccc(NC(=O)c4cnc(C)n(C)c4=O)nc3)ccn2)cn1 [Compound 110]
IC50 [1]: 111 nM

Cc1ncc(C(=O)Nc2ccc(Oc3ccnc(-c4nccs4)c3)cn2)c(=O)n1C [Compound 119]
IC50 [1]: 467 nM

Cc1ncc(C(=O)Nc2ccc(Oc3ccnc(C4=CCCCC4)c3)cn2)c(=O)n1C [Compound 121]
IC50 [1]: 413 nM

Cc1ccc(-c2cc(Oc3ccc(NC(=O)c4cnc(C)n(C)c4=O)nc3)ccn2)o1 [Compound 122]
IC50 [1]: 55 nM
